Drawing on patent US20260374773A1, “MULTI-CYCLIC IRAK AND FLT3 INHIBITING COMPOUNDS AND USES THEREOF” (CHILDREN'S HOSPITAL MEDICAL CENTER, priority 2022, published 2026), this text covers IC50 for three molecules.

The test system of test [1] is NF-κB. The test is described as follows: NF-κB SEAP reporter assay in THP-1-Blue NF-κB cells, Pam3CSK4 stimulated. It is filed as cell-based. The settings on record: Table 21; THP-1-Blue cells, 1 ng/ml Pam3CSK4, 24 h; read-out: NF-κB Pam3SCK4 IC50. The procedure:
(§1) THP-1-Blue NF-κB cells (InvivoGen) carrying a stable integrated NF-κB-inducible secreted embryonic alkaline phosphatase (SEAP) reporter construct were plated at a concentration of 1×10^5 cells per well. The cells were stimulated with Pam3CSK4 (1 ng/ml) or hIL1B (1 ng/ml). After 10-20 minutes, the cells were then treated with vehicle (DMSO) or serial dilutions of the test compounds (10 doses tested for each test compound, with a […] starting at 1 μM or 3 μM) with a final volume of 200 μL for 24 hours at 37 °C. After 24 hours, the cells were centrifuged and 20 μL supernatant was incubated with 180 μL QUANTI-Blue reagent at 37 °C for 30-60 minutes. The levels of NF-κB-induced was measured in a microplate reader at 620 nm.
as §1, with “1 mM” for “1 μM”, “3 mM)” for “3 μM)”, “200 mL” for “200 μL”, “20 mL” for “20 μL”, “180 mL” for “180 μL”, “NF-κB-induced gene expression were” for “NF-κB-induced was”
A general note: Reporter assays use an easily measured gene product as a stand-in for the process of interest.

The target in another test is IRAK1 (Homo sapiens, UniProt P51617). Description: RBC HotSpot kinase inhibition assay, IRAK1. It is filed as biochemical. The settings on record: isolated kinase, 33P-ATP, 2 h.
Excerpt: (§2) This assay uses the isolated kinase enzyme. This assay is very useful for determining competition of the inhibitor for ATP and/or substrates and for measuring the kinetics of enzyme inhibition. […] Unlike kinase binding assays that measure competition for ATP, the HotSpot Kinase Assay is a functional assay that measures catalytic activity; as such it measures relative functional potency regardless of the mechanism of enzyme inhibition. This assay uses the form of the various enzymes that are easiest to express, which may not necessarily be the form of the enzyme that exist in the cell. (Sometimes the carboxy terminus has been truncated to aid in expression, or, if it is a receptor kinase, the enzyme itself is isolated from the other parts of the receptor that are involved in regulating kinase activity.)
(§3) The reagent used was as follows: Base Reaction buffer; 20 mM Hepes (pH 7.5), 10 mM MgCl2, 1 mM EGTA, 0.01% Brij35, 0.02 mg/ml BSA, 0.1 mM Na3VO4, 2 mM DTT, 1% DMSO. Required cofactors were added individually to each kinase reaction.
(§4) The reaction procedure was as follows: • 1) Substrates were prepared in freshly prepared Reaction Buffer. • 2) Any required cofactors were delivered to the substrate solution above. • 3) Kinase was delivered into the substrate solution and gently mixed. • 4) Compounds were delivered in 100% DMSO into the kinase reaction mixture by Acoustic technology (Echo550; nanoliter range), followed by incubation for 20 min at room temp. • 5) ^33P-ATP was delivered into the reaction mixture to initiate the reaction. • 6) The mixture was incubated for 2 hours at room temperature. • 7) Kinase activity was detected by P81 filter-binding method.
as §2, with “Although not wishing to be limited by theory, it is believed that sometimes” for “(Sometimes”, “activity.” for “activity.)”
(§5) The reagent used was as follows: Base Reaction buffer; 20 mM Hepes (pH 7.5), 10 mM MgCl2, 1 mM EGTA, 0.01% Brij35, 0.02 mg/ml BSA, 0.1 mM Na3 VO4, 2 mM DTT, 1% DMSO.
(§6) Required cofactors were added individually to each kinase reaction.
as §4, with “33P-ATP” for “^33P-ATP”

Another test has as its target T1, IRAK4 (Homo sapiens, UniProt Q9NWZ3).
T1 sequence (Q9NWZ3 1-460): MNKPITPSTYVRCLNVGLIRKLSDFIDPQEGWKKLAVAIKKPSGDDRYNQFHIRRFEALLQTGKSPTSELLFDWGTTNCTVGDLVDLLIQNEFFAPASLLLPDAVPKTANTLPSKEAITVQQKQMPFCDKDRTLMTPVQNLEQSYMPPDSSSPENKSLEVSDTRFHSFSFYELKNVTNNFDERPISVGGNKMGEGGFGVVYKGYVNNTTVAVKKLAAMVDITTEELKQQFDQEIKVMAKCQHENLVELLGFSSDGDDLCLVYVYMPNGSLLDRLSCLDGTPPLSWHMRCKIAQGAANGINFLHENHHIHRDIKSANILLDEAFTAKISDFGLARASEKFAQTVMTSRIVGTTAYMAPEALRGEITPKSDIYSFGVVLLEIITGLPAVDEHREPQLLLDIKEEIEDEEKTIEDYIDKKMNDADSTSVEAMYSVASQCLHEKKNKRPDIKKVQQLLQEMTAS
Description: RBC HotSpot kinase inhibition assay, IRAK4. It is filed as biochemical. The settings on record: isolated kinase, 33P-ATP, 2 h.
Excerpt: as §2, §3, §4
as §2, with “Although not wishing to be limited by theory, it is believed that sometimes” for “(Sometimes”, “activity.” for “activity.)”
as §5, §6
as §4, with “33P-ATP” for “^33P-ATP”

Test [2] has as its system NF-κB. Description: NF-κB SEAP reporter assay in THP-1-Blue NF-κB cells, hIL1B stimulated. It is filed as cell-based. The settings on record: Table 21; THP-1-Blue cells, 1 ng/ml hIL1B, 24 h; read-out: NF-κB IL1B IC50. The protocol:
as §1
as §1, with “1 mM” for “1 μM”, “3 mM)” for “3 μM)”, “200 mL” for “200 μL”, “20 mL” for “20 μL”, “180 mL” for “180 μL”, “NF-κB-induced gene expression were” for “NF-κB-induced was”

A further test concerns the target T2, FLT3 (Homo sapiens, UniProt P36888).
T2 sequence (P36888 27-993): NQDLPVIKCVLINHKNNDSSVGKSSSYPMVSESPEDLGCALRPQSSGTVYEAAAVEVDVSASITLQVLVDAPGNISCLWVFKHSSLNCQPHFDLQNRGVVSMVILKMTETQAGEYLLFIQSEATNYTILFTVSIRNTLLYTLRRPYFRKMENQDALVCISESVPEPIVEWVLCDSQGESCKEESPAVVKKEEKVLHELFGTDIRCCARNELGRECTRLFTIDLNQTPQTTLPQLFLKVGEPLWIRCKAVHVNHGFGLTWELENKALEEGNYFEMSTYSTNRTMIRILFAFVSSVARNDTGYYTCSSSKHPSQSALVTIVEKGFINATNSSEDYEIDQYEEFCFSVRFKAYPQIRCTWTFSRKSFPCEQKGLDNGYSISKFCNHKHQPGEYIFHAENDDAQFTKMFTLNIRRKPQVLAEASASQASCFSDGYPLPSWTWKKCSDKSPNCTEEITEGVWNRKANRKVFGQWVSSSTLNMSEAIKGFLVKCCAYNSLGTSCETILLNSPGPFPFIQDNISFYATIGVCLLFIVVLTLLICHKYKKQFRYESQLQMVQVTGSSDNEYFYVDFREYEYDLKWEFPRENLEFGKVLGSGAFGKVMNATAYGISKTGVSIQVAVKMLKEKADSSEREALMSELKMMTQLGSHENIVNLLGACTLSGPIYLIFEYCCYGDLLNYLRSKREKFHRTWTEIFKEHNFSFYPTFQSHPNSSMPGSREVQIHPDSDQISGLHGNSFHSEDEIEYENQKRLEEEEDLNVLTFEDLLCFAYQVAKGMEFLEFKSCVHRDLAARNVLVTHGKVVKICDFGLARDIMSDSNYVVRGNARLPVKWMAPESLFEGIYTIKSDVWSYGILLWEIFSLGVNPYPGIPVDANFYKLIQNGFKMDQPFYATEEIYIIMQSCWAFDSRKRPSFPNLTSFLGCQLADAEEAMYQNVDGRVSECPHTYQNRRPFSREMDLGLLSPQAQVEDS
The test is described as follows: RBC HotSpot kinase inhibition assay, FLT3. The settings on record: isolated kinase, 33P-ATP, 2 h. Type of test: biochemical.
Excerpt: as §2, §3, §4
as §2, with “Although not wishing to be limited by theory, it is believed that sometimes” for “(Sometimes”, “activity.” for “activity.)”
as §5, §6
as §4, with “33P-ATP” for “^33P-ATP”

The subject of another test is MOLM14 D835Y cells. Description: MOLM14 D835Y cell viability (Cell Titer Glo). Type of test: cell-based. The settings on record: Homo sapiens. The protocol:
(§7) Both cell lines have activated FLT3 receptors, each of which carry additional resistance mutations in the kinase domain (D835Y and F691L, respectively).
(§8) MOLM14 D835Y and MOLM14 F691L cells were grown in RPMI-1640 media supplemented with 20% fetal bovine serum (FBS). For viability/cytotoxicity assessments, cells were seeded into 1536-well white polystyrene tissue culture-treated Greiner plates using a Multidrop Combi dispenser (ThermoFisher), in final volume 5 μL of growth media per well, at a density of 1000 cells per well. After cell addition, 23 nL of test compound were transferred into individual wells (22 doses tested for each test compound, with a 1:2 dilution series starting at 10 μM) via a 1536 pin-tool. Bortezomib (final concentration 2.3 μM) was used as a positive control for cell cytotoxicity. Plates were incubated for 48 hours at standard incubator conditions covered by a stainless steel gasketed lid to prevent evaporation. 48 hours post compound addition, 3 μL of Cell Titer Glo (Promega) were added to each well and plates were incubated at room temperature for 15 minutes with the stainless-steel lid in place. Luminescence readings were taken using a Viewlux imager (PerkinElmer) with a 2 second exposure time per plate.
This cell line has activated FLT3 receptors, which carries an additional resistance mutation in the kinase domain at D835Y.
as §8, with “D835Y” for “D835Y and MOLM14 F691L”, “mL” for “μL”, “mM)” for “μM)”

In another test the test system is MOLM14 F691L cells. Description: MOLM14 F691L cell viability (Cell Titer Glo). Type of test: cell-based. The settings on record: Homo sapiens, MOLM-14, Table 22, 48 h. The protocol: as §7, §8

As usually defined, the IC50 is the concentration needed to halve the response being measured.

Where only a bound is given, the exact number is not on record here.

IRAK1, sequence (P51617 whole entry, the tested form may be a part): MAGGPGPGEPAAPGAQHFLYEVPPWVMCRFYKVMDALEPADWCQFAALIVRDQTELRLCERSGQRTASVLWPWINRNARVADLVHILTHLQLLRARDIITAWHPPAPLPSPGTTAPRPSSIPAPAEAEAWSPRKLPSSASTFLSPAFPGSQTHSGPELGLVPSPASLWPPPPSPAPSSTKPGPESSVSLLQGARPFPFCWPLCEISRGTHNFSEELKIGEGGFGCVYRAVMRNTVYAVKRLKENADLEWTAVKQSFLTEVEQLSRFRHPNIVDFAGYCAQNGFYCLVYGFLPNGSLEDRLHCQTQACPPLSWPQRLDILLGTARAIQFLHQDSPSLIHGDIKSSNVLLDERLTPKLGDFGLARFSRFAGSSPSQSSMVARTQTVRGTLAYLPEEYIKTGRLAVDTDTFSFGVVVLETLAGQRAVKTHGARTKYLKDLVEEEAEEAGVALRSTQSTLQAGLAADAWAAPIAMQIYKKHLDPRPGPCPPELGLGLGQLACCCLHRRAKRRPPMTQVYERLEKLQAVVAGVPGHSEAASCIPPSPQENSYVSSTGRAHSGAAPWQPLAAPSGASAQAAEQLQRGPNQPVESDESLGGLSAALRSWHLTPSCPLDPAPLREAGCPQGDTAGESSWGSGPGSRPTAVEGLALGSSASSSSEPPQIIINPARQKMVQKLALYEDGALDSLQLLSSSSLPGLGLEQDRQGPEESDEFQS

Regarding `COc1cn2ncc(-c3ccnc(N[C@@H]4CCCNC4)n3)c2nc1C1CC1` [Compound 9a, (R)-4-(5-cyclopropyl-6-methoxypyrazolo[1,5-a]pyrimidin-3-yl)-N-(piperidin-3-yl)pyrimidin-2-amine], the IC50 was 173 nM in the test on NF-κB [1]; 44 nM on IRAK1 (Table 17); 4 nM at IRAK4 (Table 17); 128 nM with NF-κB [2]; < 0.5 nM on FLT3 (Table 17).
As for `COc1cn2ncc(-c3nc(N[C@@H]4CCCNC4)c(F)cc3F)c2nc1C1CC1` [Compound 23, (R)-6-(5-cyclopropyl-6-methoxypyrazolo[1,5-a]pyrimidin-3-yl)-3,5-difluoro-N-(piperidin-3-yl)pyridin-2-amine], the IC50 was < 0.5 nM against IRAK1 (Table 11); < 0.5 nM against IRAK4 (Table 11); 5 nM in the test with MOLM14 D835Y cells (MOLM-14, Table 16, 48 h); < 0.5 nM on FLT3 (Table 11).
With `COc1cn2ncc(-c3ccnc(N[C@@H]4CCCNC4)n3)c2nc1C(C)(C)O` [Compound 2a, (R)-2-(6-methoxy-3-(2-(piperidin-3-ylamino)pyrimidin-4-yl)pyrazolo[1,5-a]pyrimidin-5-yl)propan-2-ol], the half-maximal inhibitory concentration (IC50) is 1790 nM in the test with MOLM14 F691L cells; 365 nM against IRAK1 (Table 17); 127 nM against IRAK4 (Table 17); 159 nM in the test on MOLM14 D835Y cells (MOLM-14, Table 22, 48 h); 8 nM against FLT3 (Table 17).
